Assay results as given in patent publication US20210403435A1, “HERBICIDAL COMPOUNDS” (SYNGENTA CROP PROTECTION AG, priority 2018, published 2021).

Experiments:
Test in all cases: Post-emergence efficacy, glasshouse, evaluated after 13 days
Format in all cases: in vivo
[1] = system: Chenopodium album (CHEAL); details: Chenopodium album, 312 h; post-emergence application, 500 g/Ha, evaluated after 13 days; read-out: Control of weed species CHEAL (100=total damage to plant; 0=no damage to plant)
In short: (§1)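 Damage rated on a 0–100 scale (100 = plant killed) 13 days after spraying. Spray contained compound in IF50 emulsifier, diluted with 0.25% or 1% Empicol ESC70 plus 1% ammonium sulphate, applied to 14-day-old glasshouse plants (24/16° C., 14 h light, 65% humidity).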

[2] = system: Euphorbia heterophylla (EPHHL); details: Euphorbia heterophylla, 312 h; post-emergence application, 500 g/Ha, evaluated after 13 days; read-out: Control of weed species EPHHL (100=total damage to plant; 0=no damage to plant)
In short: as §1

[3] = system: Echinochloa crus-galli (ECHCG); details: Echinochloa crus-galli, 312 h; post-emergence application, 500 g/Ha, evaluated after 13 days; read-out: Control of weed species ECHCG (100=total damage to plant; 0=no damage to plant)
In short: as §1

[4] = system: Digitaria sanguinalis (DIGSA); details: Digitaria sanguinalis, 312 h; post-emergence application, 500 g/Ha, evaluated after 13 days; read-out: Control of weed species DIGSA (100=total damage to plant; 0=no damage to plant)
In short: as §1

[5] = system: Amaranthus palmeri (AMAPA); details: Amaranthus palmeri, 312 h; post-emergence application, 500 g/Ha, evaluated after 13 days; read-out: Control of weed species AMAPA (100=total damage to plant; 0=no damage to plant)
In short: as §1

[6] = system: Ipomoea hederacea (IPOHE); details: Ipomoea hederacea, 312 h; post-emergence application, 500 g/Ha, evaluated after 13 days; read-out: Control of weed species IPOHE (100=total damage to plant; 0=no damage to plant)
In short: as §1

Setaria faberi (SETFA) = details: Setaria faberi, 312 h; post-emergence application, 500 g/Ha, evaluated after 13 days; read-out: Control of weed species SETFA (100=total damage to plant; 0=no damage to plant)
In short: as §1

Eleusine indica (ELEIN) = details: Eleusine indica, 312 h; post-emergence application, 500 g/Ha, evaluated after 13 days; read-out: Control of weed species ELEIN (100=total damage to plant; 0=no damage to plant)
In short: as §1

Lolium perenne (LOLPE) = details: Lolium perenne, 312 h; post-emergence application, 500 g/Ha, evaluated after 13 days; read-out: Control of weed species LOLPE (100=total damage to plant; 0=no damage to plant)
In short: as §1

| Compound | pest or weed control at 500 g/ha [1] | pest or weed control at 500 g/ha [2] | pest or weed control at 500 g/ha [3] | pest or weed control at 500 g/ha [4] | pest or weed control at 500 g/ha [5] | pest or weed control at 500 g/ha [6] | pest or weed control at 500 g/ha (Setaria faberi (SETFA)) | pest or weed control at 500 g/ha (Eleusine indica (ELEIN)) | pest or weed control at 500 g/ha (Lolium perenne (LOLPE)) |
| --- | --- | --- | --- | --- | --- | --- | --- | --- | --- |
| O=C(NC1CC1)c1cc[n+](CCCOS(=O)(=O)[O-])nc1 [Compound A126] | 60% | 60% | 60% | 40% | 10% | 50% | 70% | 40% | 50% |
| CC(O)CCNC(=O)c1cc[n+](CCC(=O)O)nc1 (stereo not drawn) [Compound A127] | 80% | 70% | 50% | 100% | 100% | 30% | 100% | 100% | 80% |
| CC(O)CNC(=O)c1cc[n+](CCC(=O)O)nc1 (stereo not drawn) [Compound A128] | 90% | 100% | 40% | 100% | 100% | 30% | 90% | 90% | 80% |
| CC(=O)CNC(=O)c1cc[n+](CCC(=O)O)nc1 [Compound A129] | 100% | 80% | 60% | 100% | 100% | 20% | 100% | 90% | 70% |
| CC(=O)CCNC(=O)c1cc[n+](CCC(=O)O)nc1 [Compound A130] | 90% | 20% | 50% | 100% | 100% | 10% | 100% | 70% | 70% |
| CC1(C)CC(NC(=O)c2cc[n+](CCC(=O)O)nc2)=NO1 [Compound A131] | 10% | 90% | 30% | 30% | 30% | 30% | 30% | 20% | 0% |
| COCC(C)NC(=O)c1cc[n+](CCC(=O)O)nc1 (stereo not drawn) [Compound A132] | 100% | 70% | 90% | 100% | 100% | 40% | 100% | 100% | 90% |
| CN1CCN(C(=O)c2cc[n+](CCC(=O)O)nc2)CC1 [Compound A133] | 10% | 20% | 60% | 90% | 20% | 10% | 70% | 50% | 0% |
| CCC1(NC(=O)c2cc[n+](CCC(=O)O)nc2)CC1 [Compound A134] | 90% | 40% | 100% | 100% | 100% | 20% | 60% | 90% | 90% |
| CN(CCS(C)(=O)=O)C(=O)c1cc[n+](CCC(=O)O)nc1 [Compound A135] | 60% | 80% | 60% | 90% | 80% | 30% | 100% | 40% | 70% |
